Active and inactive are the calls of the source.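 Rule for the calls: active = compounds giving half or more protection of infected cells from virus-caused growth loss, again on retest; inactive = the rest.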 *1 amine or outer side, *2 acyl side, *3 side chain or, on linkers, in order; H or OH if unused. Where a SMILES comes first, the peptide text is derived from it. Bridges are numbered along the chain shown (N, C = ends). [ ]: non-standard residue; d: D form. The star is where a group is joined. Fmoc = O=C(OCC1c2ccccc2-c2ccccc21)*; X2 = O=C(C(CCCCNO[*:3])N[*:1])[*:2]; Boc = CC(C)(C)OC(=O)*; OBn = c1ccc(CO*)cc1
Test system: CEM cells HIV-1 protection, formazan growth assay
Assay: NCI AIDS Antiviral Assay
Settings: for IC50: measured here: growth of uninfected CEM cells
Procedure, shortened: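 Steps: treat uninfected and HIV-1-infected human CEM cells at five drug levels; quantify growth by soluble formazan; retest any compound reaching 50% protection; classify actives from the retest.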

SMILES | EC50 [µM] | IC50 [µM] | outcome
Nc1ncnc2c1ncn2C1SC(CO)C(O)C1O (centres undefined) | 45.7 | 148 | 
O=C(Nc1c[nH]c(=O)[nH]c1=O)c1ccc(S(=O)(=O)F)cc1 | > 151 | 85.1 | 
COc1ccc(N2C(=O)C3c4[nH]c5cccc(Cl)c5c4C4CCC(C(C)(C)C)CC4C3C2=O)cc1 (centres undefined) | > 200 |  | 
COc1cccc(/C=N/[N-]C(N)=O)c1[O-].[Cu+2].[OH3+] | > 64.6 | 10.5 | 
CCc1cccc(C(C)C)c1N1C(=O)C(=O)C(c2nc3ccccc3s2)C(=O)C1=O | > 17.4 | > 17.4 | 
CNc1nc2c(C)ccc3[nH]c(N(C)C)nc3c-2n1 | > 759 | 50.1 | 
O=C1[C@H](Cc2ccccc2)C[C@H]2CO[C@H](c3ccccc3)N12 | > 200 | 38.9 | 
COc1ccc(/C=N/N=C(\[O-])c2ccncc2)cc1F.COc1ccc(/C=N\N=C(/[O-])c2ccncc2)cc1F.[Cu+2] | > 100 | 18.6 | 
COC(=O)CCC(=O)c1ccc2c(c1)CC1(Cc3ccccc3C1)C2 | > 200 | 46.8 | 
O=C(O)CCC(NC(=O)c1ccc(Nc2cnc3ccc(C(F)(F)F)cc3n2)cc1)C(=O)O (centres undefined) | > 200 | > 200 | 
CNc1nc(C(N)=O)c(N)s1 | > 200 | > 200 | 
O=C(/C=C\c1cccc(C(F)(F)F)c1)c1ccccc1 |  |  | inactive
Cn1c2ccccc2c(=NNc2ccc(S(=O)(=O)N=C(N)N)cc2)c2ccccc21 | > 200 | 5.5 | 
Cc1cc(Cl)c(O)c(C(=O)C(=O)C(O)c2ccc3c(c2)OCO3)c1 (centres undefined) | > 200 | 2.45 | 
CON(C)C(=O)C(C)NC(=O)OCc1ccccc1 (centres undefined) | > 933 | 813 | 
Cn1c(=O)n2n(c1=O)C1CCC2CC1 | > 1290 | 437 | 
Cc1ccc(S(=O)(=O)N=C2C=C(C(C)(C)C)C(=O)C(C(C)(C)C)=C2)cc1 | > 36.3 | > 36.3 | 
CCOC(=O)[C@@]12C[C@@H](C#N)C1N(Cc1ccccc1)[C@@H]1ON=C(c3ccc(Cl)cc3)[C@@H]1C2 (some centres undefined) |  |  | inactive
CC1(CO)CCC(n2ccc(N)nc2=O)O1 (centres undefined) | 30.9 | > 200 | 
CC(=O)NC(Cc1cnc[nH]1)C(=O)N1CCCC1C(N)=O (centres undefined) | > 200 | > 200 | 
[N-]=[N+]=NC1(N=[N+]=[N-])C(=O)NN=C(c2ccccc2)C1=O (centres undefined) |  |  | inactive

SMILES | EC50 [µM] | IC50 [µM] | outcome
CC(C)CC(NC(=O)OC(C)(C)C)C(=O)N1CCCC1C(=O)OCc1ccccc1 (stereo not drawn) (Boc-Leu-Pro-OBn; configuration not given here) | > 200 | 52.5 | 
CC(=O)NC1(NC(C)=O)C2CC(C1Cc1ccccc1)C(C)(C)C2C (centres undefined) | > 724 | > 724 | 
O=C(O)c1ccc(N=Nc2cc(S(=O)(=O)O)c3cccnc3c2O)cc1 | > 19.5 | > 19.5 | 
CCOP(=O)(OCC)OC1CC(n2cnc3c(N(CC)CC)ncnc32)OC1CO[Si](C)(C)C(C)(C)C (centres undefined) | > 200 | 31.6 | 
Cn1nc(-c2ccccc2)c2c(/C=C/c3ccc(Cl)cc3)onc2c1=O | > 14.5 | > 14.5 | 
Nc1ccc(C(=O)CC2(O)C(=O)Nc3c(Cl)cc(Cl)cc32)cc1 (centres undefined) | > 33.9 | 18.6 | 
O=c1ccn([C@H]2CSC[C@@H](CO)C2)c(=O)[nH]1 | > 1020 | > 1020 | 
CN1CCCOC(c2ccc(Cl)cc2)O1 (centres undefined) | > 200 | > 200 | 
COc1ccc2c(c1OC)C1=NCCc3c(OC)c(OC)c(OC)c-2c31 |  |  | inactive
CC(C)=CC(=O)N1CC(C)Cn2c(=S)[nH]c3cccc1c32 (centres undefined) | > 200 | > 200 | 
O=C1CC(c2ccccc2)n2c(nc3ccccc32)N1 (centres undefined) | > 151 | 67.6 | 
COc1cc(C2(C)OC(=O)c3ccccc32)c(OC)c2ccccc12 (centres undefined) | > 44.7 | 7.76 | 
CC(=O)C(CN(CC(C)C)CC(C)C)C(c1ccccc1)c1c(O)c2ccccc2oc1=O (centres undefined) | > 28.2 | > 28.2 | 
O=c1[nH]nc(Nc2ccc(Cl)cc2)c2nnn(C3CCCCC3)c12 | > 200 | > 200 | 
O=C(COc1ccc(Cl)cc1)N1CCN(C(=O)COc2ccc(Cl)cc2)c2ccccc21 | > 11 | > 11 | 
O=S(=O)(O)c1cc(N=Nc2ccc(/C=C/c3ccc(N=Nc4cc(S(=O)(=O)O)c5cccnc5c4O)cc3)cc2)c(O)c2ncccc12 | 3.98 | 93.3 | 
c1ccc(CN(Cc2ccccn2)Cc2ccccn2)cc1 |  |  | inactive
CN(C)c1ccc(NN=C2SC(=Nc3ccccc3)C(=Nc3ccccc3)S2)cc1 | > 200 | 8.13 | 
Cc1cc2c(cc1-c1cc3c(cc1C)C(C(C)C)=C(O)C(=O)/C3=C\Nc1nc(-c3ccccc3)cs1)/C(=C/Nc1nc(-c3ccccc3)cs1)C(=O)C(O)=C2C(C)C | > 100 | 13.2 | 
CCOc1ccc(N=Nc2ccc3cc(/C(C)=N/NC(=O)/C(C#N)=C\c4ccc(N(CCC#N)CCC#N)cc4)c(=O)oc3c2)cc1 | > 200 | > 200 | 
CC(C)(C)c1ccc(OP(=S)(NN)Oc2ccc(C(C)(C)C)cc2)cc1 | > 61.7 | 30.2 | 

SMILES | EC50 [µM] | IC50 [µM] | outcome
NC(=O)CNC(=O)C1CCCN1C(=O)C1CCCCNOC(=O)CCC(NC(=O)OCC2c3ccccc3-c3ccccc32)C(=O)NC(Cc2c[nH]c3ccccc23)C(=O)N1 (centres undefined) (Fmoc-EW[X2]PG-NH2; ester 1-3; configuration not given here) | 70.8 | > 100 | 
O=C1OC2(O)c3ccccc3C(=O)N2N2CCCC12 (centres undefined) | > 692 | > 692 | 
CC(C)C(NC(=O)C(Cc1ccccc1)NC(=O)[C@H]1CCC[C@H]1NC(=O)C(N)Cc1ccc(O)cc1)C(N)=O (some centres undefined) |  |  | inactive
C=CCNC(=S)N/C=C\c1c(C(=O)O)cc([N+](=O)[O-])cc1[N+](=O)[O-] | > 200 | > 100 | 
O=S(=O)(O)c1ccc(NNc2ccc(S(=O)(=O)O)cc2)cc1 |  |  | inactive
CC(=O)OC1CC[C@@]2(C)C(=CC[C@@H]3[C@@H]2CC[C@]2(C)Nc4c(cnn4-c4ccc(F)cc4)C[C@@H]32)C1 (some centres undefined) | > 10 | > 10 | 
BrN1C2c3ccccc3C1c1ccccc12 |  |  | inactive
O=C(O)CCSSCCCCS(=O)O | > 200 | 2.04 | 
N#CC(NCCc1ccccc1)c1ccc(C(C#N)NCCc2ccccc2)cc1 (centres undefined) | > 200 | 10.5 | 
COC1=C2C[C@](OC)(C#CC=CC#CC2O)CC1(C)C (some centres undefined) | > 200 | 97.7 | 
O=C(C(=C(I)I)c1ccccc1)c1ccccc1 | > 200 | 19.5 | 
CCC1Oc2c(CC=C(C)C)c(OC(C)=O)c(C(OC(C)=O)C(C)CC)c3oc(=O)cc1c23 (centres undefined) | > 200 | 95.5 | 
C=CC1(C)CCC2C(=CCC3C2(C)CC(O)C(O)C3(C)COC2OC(C(=O)O)C(O)C(O)C2O)C1 (centres undefined) (tested in a mixture with another compound) | > 100 | > 100 | 
Cn1c(=O)c2nccnc2n(C)c1=O | 178 | > 200 | 
N=C1SC2CCCCCCC2S1 (centres undefined) | > 200 | > 200 | 
CCCCCCOc1ccc(C(=O)N(C)O)cc1 | > 200 | 11.5 | 
CCCCC(C)C(OC(=O)CC(CC(=O)O)C(=O)O)C(CC(C)CC(O)CCCCC(O)CC(O)C(C)N)OC(=O)CC(CC(=O)O)C(=O)O (centres undefined) |  |  | inactive
O=C(c1ccc(O)cc1O)C1C(c2ccc(O)cc2)OC(c2ccc(O)cc2)C1C(=O)c1ccc(O)cc1O (centres undefined) |  |  | inactive
O=C(C#Cc1ccccc1)N1c2ccccc2CC1c1c[nH]c2ccccc12 (centres undefined) | > 20 | 8.32 | 
Cc1ccc(S(=O)(=O)ON2C(=O)c3c(N)c(C#N)c(-c4ccccc4)c(-c4ccccc4)c3C2=O)cc1 | > 200 | 3.8 | 
Cc1sc2nc3n(c(=O)c2c1C)N=CN(c1ccccc1)C3 | > 100 | > 100 | 

SMILES | EC50 [µM] | IC50 [µM] | outcome
O=C1/C(=N\S(=O)(=O)c2ccccc2)C([n+]2ccc(Cc3ccccc3)cc2)=C([O-])c2ccccc21 | > 200 | 2.63 | 
Nc1ccc(N)c(N2C(=O)c3ccccc3C2=O)c1 | > 200 | > 200 | 
COC(=O)/C=C(/C)n1nc2ccccc2n1 | > 200 | > 200 | 
Cc1oc2c(c1C)S(=O)(=O)C(C#N)=C(N(C)C)N2 | > 200 | > 200 | 
Cc1cc2c(cc1CO)N1Cc3cc(C)c(CO)cc3N(C2)C1 |  |  | inactive
C[N+]1=C(c2ccc[nH]2)CC(C(=O)[O-])CC1 (centres undefined) | > 200 | > 200 | 
CC(C)(C)C1=CC(=Nc2ccc([N+](=O)[O-])cc2[N+](=O)[O-])C=C(C(C)(C)C)C1=O | > 13.5 | > 13.5 | 
Cc1cccc2oc3c(CC(=O)O)cccc3c(=O)c12 | > 200 | > 100 | 
O=c1[nH]cnc2c1ncn2[C@H]1CO[C@@H](CO)[C@@H]1O | > 100 | > 100 | 
c1ccc2c(CC[n+]3cccc(C4OCCO4)c3)c[nH]c2c1 | > 661 | 110 | 
CCOC(=O)N1CCC2(CC1)C[C@](Sc1ccccc1)(C(C)=O)[C@H](C)O2 | > 200 | > 200 | 
CC(C)(C)[Si](C)(C)OC1C(C/[N+]([O-])=N\Nc2ccc([N+](=O)[O-])cc2)OC(n2ccc(=O)[nH]c2=O)C1O[Si](C)(C)C(C)(C)C (centres undefined) | > 200 | 1.95 | 
O=c1[nH]cnc2c1sc(=S)n2-c1ccccc1 | > 100 | 70.8 | 
COc1cc(/C=C2\CC(C)C/C(=C\c3ccc(O)c(OC)c3)C2=O)ccc1O (centres undefined) | > 200 | 3.39 | 
CC(CC1c2ccccc2CCc2ccccc21)CN(C)C (centres undefined) | > 200 | 33.1 | 
O=c1c2cc3ccccc3n2c(=O)c2cc3ccccc3n12 | > 5.01 | > 5.01 | 
COc1ccc(/C=c2\[nH]c3nc(=O)c(N4CCOCC4)c(N)n3c2=O)cc1 | > 200 | > 200 | 
COc1ccc(N/N=C2\CCOc3ccc(C)cc3C2=O)cc1 | > 20 | 12 | 
Cc1nc2cncnc2n(CCN2CCOCC2)c1=O | > 200 | 46.8 | 
Cc1ccc(OP2(=O)Nc3ccccc3S2)cc1 (centres undefined) | > 468 | 25.7 | 
